For 24 compounds, IC50 and inhibition results are on record in patent EP2951180B1, “2,6,7,8 SUBSTITUTED PURINES AS HDM2 INHIBITORS” (Merck Sharp & Dohme Corp., priority 2013, dated 2014).

In the test the target is T1, HDM2 (Homo sapiens, UniProt Q00987).
T1 construct: Thioredoxin (N); made in house; host or cells: E. coli strain BL21(DE3)Rosetta
Kind of test: HDM2 FRET assay (inhibition of binding of FITC labeled p53-pocket peptide to HDM2). The conditions noted are these: for IC50: read-out: FRET IC50. A digest of the protocol:
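Final: 0.5 nM His-HDM2, 3 nM FITC peptide, 0.25 nM Tb anti-His Ab; PBS, 0.01% BSA, 0.01% Tween-20; 0.1% DMSO.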

Setting [1] is: 0.5 nM HDM2 (residues 17 to 125), 3nM peptide, two hour incubation at room temperature.

Where two headings read alike, the source gives them in different places.

T1 sequence (Q00987 17-125): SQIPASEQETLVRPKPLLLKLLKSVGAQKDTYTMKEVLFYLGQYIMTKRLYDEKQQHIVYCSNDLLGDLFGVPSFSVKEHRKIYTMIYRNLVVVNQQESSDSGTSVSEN

On to `C[C@@H](Nc1nc(C(=O)O)nc2nc(-c3cc(C(C)(C)C)ccn3)n(C[C@H]3CC[C@H](C)CC3)c12)C1CCC1` [Example 15.16, 8-(4-tert-butylpyridin-2-yl)-6-{[(1R)-1-cyclobutylethyl]amino}-7-[(trans-4-methylcyclohexyl)methyl]-7H-purine-2-carboxylic acid], for which the IC50 under setting [1] was 1.04 nM. Turning to `C[C@@H](Nc1nc(-c2noc(=O)[nH]2)nc2nc(C(C)(O)c3cscn3)n(C[C@H]3CC[C@H](C)CC3)c12)C1CCC1` (stereo partly drawn) [Example 22.52, 3-(6-{[(1R)-1-cyclobutylethyl]amino}-8-[1-hydroxy-1-(1,3-thiazol-4-yl)ethyl]-7-[(trans-4-methylcyclohexyl)methyl] -7H-purin-2-yl)-1,2,4-oxadiazol-5(4H)-one], the IC50 (Table 22) is 1.85 nM.

As to `CC1CSCCN1c1nc2nc(-c3noc(=O)[nH]3)nc(N[C@H](C)C3CCC3)c2n1C[C@H]1CC[C@H](C)CC1` (stereo partly drawn) [Example 11.123, 3-[6-{[(1R)-1-cyclobutylethyl]amino}-7-[(trans-4-methylcyclohexyl)methyl]-8-(3-methylthiomorpholin-4-yl)-7H-purin-2-yl]-1,2,4-oxadiazol-5(2H)-one], where the note is “Table 11”, the IC50 was 4.39 nM.

As to `Cc1cccc(-c2nc3nc(C(=O)O)nc(N(C)C(C)C(C)C)c3n2Cc2ccc(C(F)(F)F)cc2)c1` (stereo not drawn) [Example 6.81, 6-[(1,2-dimethylpropyl)(methyl)amino]-8-(3-methylphenyl)-7-[4-(trifluoromethyl)benzyl]-7H-purine-2-carboxylic acid], the inhibition at 1 µM (read-out: inh. at 1000 nM (FRET)) is 46%. Turning to `C[C@@H](Nc1nc(-c2n[nH]c(=O)o2)nc2nc(N3CCOC[C@H]3c3ccccc3)n(C[C@H]3CC[C@H](C)CC3)c12)C1CCC1` [Example 11.55, 5-(6-{[(1R)-1-cyclobutylethyl]amino}-7-[(trans-4-methylcyclohexyl)methyl]-8-[(3R)-3-phenylmorpholin-4-yl]-7H-purin-2-yl)-1,3,4-oxadiazol-2(3H)-one], the IC50 (Table 11) was 2.14 nM. Take `COC(c1ccccc1)c1nc2nc(-c3noc(=O)[nH]3)nc(-c3cccc(Cl)c3)c2n1C[C@H]1CC[C@H](C)CC1` (single isomer, unassigned) [Example 23.44, 3-{6-(3-chlorophenyl)-8-[methoxy(phenyl)methyl]-7-[(trans-4-methylcyclohexyl)methyl] -7H-purin-2-yl}-1,2,4-oxadiazol-5(4H)-one]: the IC50 (Table 23) came out at 4.53 nM. As to `C[C@H]1CC[C@H](Cn2c(N3CCCC4COCCC43)nc3nc(-c4noc(=O)[nH]4)nc(-c4cccc(Cl)c4)c32)CC1` (single isomer, unassigned) [Example 16.118, 3-{6-(3-chlorophenyl)-8-(hexahydro-2H-pyrano[4,3-b]pyridin-1(5H)-yl)-7-[(trans-4-methylcyclohexyl)methyl]-7H-purin-2-yl}-1,2,4-oxadiazol-5(4H)-one], the IC50 under setting [1] was 22.2 nM. Still for that read-out and setting: to `CC(C)[S+]([O-])c1nc(N[C@H](C)C2CCC2)c2c(n1)nc(N1CCOC[C@H]1c1ccccc1)n2C[C@H]1CC[C@H](C)CC1` (stereo partly drawn) [Example 14.8, N-[(1R)-1-cyclobutylethyl]-7-[(trans-4-methylcyclohexyl)methyl]-2-[(1-methylethyl)sulfinyl]-8-[(3R)-3-phenylmorpholin-4-yl]-7H-purin-6-amine] belongs 15.5 nM. As for `C[C@@H]1CN(C(=O)CO)CCN1c1nc2nc(-c3noc(=O)[nH]3)nc(N[C@H](C)C3CCC3)c2n1C[C@H]1CC[C@H](C)CC1` [Example 17.18, 3-(6-{[(1R)-1-cyclobutylethyl]amino}-8-[(2R)-4-(hydroxyacetyl)-2-methylpiperazin-1-yl]-7-[(trans-4-methylcyclohexyl)methyl]-7H-purin-2-yl)-1,2,4-oxadiazol-5(4H)-one], where the note is “Table 17.2”, the IC50 stood at 3.79 nM. In the case of `Cc1cccc(-c2nc3nc(C(=O)O)nc(N[C@H](C)C4CC4)c3n2Cc2ccc(Cl)c(Cl)c2)c1` [Example 6.16, 6-{[(1R)-1-cyclopropylethyl]amino}-7-(3,4-dichlorobenzyl)-8-(3-methylphenyl)-7H-purine-2-carboxylic acid], the IC50 (Table 6) is 462 nM. For the compound `C[C@@H](Nc1nc(-c2noc(=O)[nH]2)nc2nc(C(O)C3CCC3)n(C[C@H]3CC[C@H](C)CC3)c12)C1CCC1` (stereo partly drawn) [Example 22.57, 3-(6-{[(1R)-1-cyclobutylethyl]amino}-8-[cyclobutyl(hydroxy)methyl]-7-[(trans-4-methylcyclohexyl)methyl] -7H-purin-2-yl)-1,2,4-oxadiazol-5(4H)-one], for the setting “Table 22”, the IC50 stood at 9.75 nM. `CC1(C)COCCN1c1nc2nc(-c3noc(=O)[nH]3)nc(-c3cccc(Cl)c3)c2n1C[C@H]1CC[C@H](C)CC1` [Example 16.29, 3-{6-(3-chlorophenyl)-8-(3,3-dimethylmorpholin-4-yl)-7-[(trans-4-methylcyclohexyl)methyl]-7H-purin-2-yl}-1,2,4-oxadiazol-5(4H)-one]: the IC50 under setting [1] was found to be 5.2 nM. `C[C@@H](Nc1nc(C(=O)O)nc2nc(N3CCOC[C@H]3c3ccccc3)n(Cc3ccc(C(F)(F)F)cc3)c12)C1CCC1` [Example 9.50, 6-{[(1R)-1-cyclobutylethyl]amino}-8-[(3R)-3-phenylmorpholin-4-yl]-7-[4-(trifluoromethyl)benzyl]-7H-purine-2-carboxylic acid]: the IC50 (Table 9) is 1.76 nM. As to `C[C@@H](Nc1nc(-c2n[nH]c(=O)o2)nc2nc(N3CCC[C@H]3C(F)(F)F)n(C[C@H]3CC[C@H](C)CC3)c12)C1CCC1` [Example 11.137, 5-(6-{[(1R)-1-cyclobutylethyl]amino}-7-[(trans-4-methylcyclohexyl)methyl]-8-[(2S)-2-(trifluoromethyl)pyrrolidin-1-yl]-7H-purin-2-yl)-1,3,4-oxadiazol-2(3H)-one], under “Table 11”, the IC50 was determined as 0.881 nM. In the case of `C[C@@H](Nc1nc(C(=O)O)nc2nc(C(=O)NC3CCCCC3)n(Cc3ccc(C(F)(F)F)cc3)c12)C1CCC1` [Example 10.19, (R)-6-((1-Cyclobutylethyl)amino)-8-(cyclohexylcarbamoyl)-7-(4-(trifluoromethyl)benzyl)-7H-purine-2-carboxylic acid], for the setting “Table 10”, the IC50 turned out to be 68 nM. For `CC(C)c1ccnc(-c2nc3nc(C(=O)O)nc(OC(C)C4CCC4)c3n2Cc2ccc(C(F)(F)F)c(F)c2)c1` (racemic) [Example 17.7, 6-(1-cyclobutylethoxy)-7-[3-fluoro-4-(trifluoromethyl)benzyl]-8-[4-(propan-2-yl)pyridin-2-yl]-7H-purine-2-carboxylic acid], under setting [1], the IC50 amounted to 15 nM. For `CC(C)CC1CCN(c2nc3nc(-c4noc(=O)[nH]4)nc(N[C@H](C)C4CCC4)c3n2Cc2ccc(C(F)(F)F)cc2)C1` (stereo partly drawn) [Example 9.92, 3-(6-{[(1R)-1-cyclobutylethyl]amino}-8-[3-(2-methylpropyl)pyrrolidin-1-yl]-7-[4-(trifluoromethyl)benzyl]-7H-purin-2-yl)-1,2,4-oxadiazol-5(4H)-one], the IC50 (Table 9) amounted to 478 nM. On to `CCC1CCCCN1c1nc2nc(C(=O)O)nc(N[C@H](C)C3CCC3)c2n1C[C@H]1CC[C@H](C)CC1` (stereo partly drawn) [Example 11.52, 6-{[(1R)-1-cyclobutylethyl]amino}-8-(2-ethylpiperidin-1-yl)-7-[(trans-4-methylcyclohexyl)methyl]-7H-purine-2-carboxylic acid], for which, under “Table 11”, the IC50 came out at 3.43 nM. As to `CC(C)CC(=O)Nc1nc2nc(C(=O)O)nc(N[C@H](C)C3CCC3)c2n1Cc1ccc(C(F)(F)F)cc1` [Example 9.42, 6-{[(1R)-1-cyclobutylethyl]amino}-8-[(3-methylbutanoyl)amino]-7-[4-(trifluoromethyl)benzyl]-7H-purine-2-carboxylic acid], the IC50 (Table 9) turned out to be 324 nM. On to `C[C@H]1CC[C@H](Cn2c(N3CCOC[C@H]3c3ccccc3)nc3nc(-c4noc(=O)[nH]4)nc(-c4cc(F)cc(Cl)c4)c32)CC1` [Example 16.20, 3-{6-(3-chloro-5-fluorophenyl)-7-[(trans-4-methylcyclohexyl)methyl]-8-[(3R)-3-phenylmorpholin-4-yl]-7H-purin-2-yl}-1,2,4-oxadiazol-5(4H)-one], for which the IC50 under setting [1] worked out at 1.21 nM.

For the compound `C[C@@H](Nc1nc(CO)nc2nc(N3CCOC[C@H]3c3ccccc3)n(C[C@H]3CC[C@H](C)CC3)c12)C1CCC1` [Example 12.22, (6-{[(1R)-1-cyclobutylethyl]amino}-7-[(trans-4-methylcyclohexyl)methyl]-8-[(3R)-3-phenylmorpholin-4-yl]-7H-purin-2-yl)methanol], under setting [1], the IC50 worked out at 78.6 nM. For `CC(c1nc2nc(-c3noc(=O)[nH]3)nc(-c3cccc(Cl)c3)c2n1C[C@H]1CC[C@H](C)CC1)C1CCOCC1` (relative stereo) [Example 24.3, 3-{6-(3-chlorophenyl)-7-[(trans-4-methylcyclohexyl)methyl]-8-[1-(tetrahydro-2H-pyran-4-yl)ethyl]-7H-purin-2-yl}-1,2,4-oxadiazol-5(4H)-one], the IC50 under setting [1] was 14.2 nM.

For `C[C@H]1CC[C@H](Cn2c(C3(F)COC3)nc3nc(-c4noc(=O)[nH]4)nc(-c4cncc(Cl)c4)c32)CC1` [Example 23.28, 3-{6-(5-chloropyridin-3-yl)-8-(3-fluorooxetan-3-yl)-7-[(trans-4-methylcyclohexyl)methyl]-7H-purin-2-yl}-1,2,4-oxadiazol-5(4H)-one], the IC50 (Table 23) amounted to 62.8 nM.

With `C[C@@H](Nc1nc(C(=O)O)nc2nc(C3=C(c4ccccc4)CCC3)n(Cc3ccc(C(F)(F)F)cc3)c12)C1CCC1` [Example 21.4, 6-{[(1R)-1-cyclobutylethyl]amino}-8-(2-phenylcyclopent-1-en-1-yl)-7-[4-(trifluoromethyl)benzyl]-7H-purine-2-carboxylic acid], the IC50 (Table 21) worked out at 6.99 nM.
